Data reported in paper PMC12676205, “New Se‐Compounds With Antileishmanial, Antitumor, and Carbonic Anhydrase Inhibitory Properties” (Archiv Der Pharmazie, 2025).

Tests used:
[1] = test system: A498 renal‐resistant cells; experiment: NCI-60 five-dose assay, A498; format: cell-based; conditions: Homo sapiens, 48 h
Procedure: (§1) All the compounds were selected for further testing since they fulfilled the set NCI one‐dose screening parameters for threshold inhibition. They were tested at five different concentrations (0.01, 0.1, 1, 10, and 100 μM) for 48 h against the same cell line panel and the dose–response curves along with three response parameters (50% growth inhibitory concentration [GI50], the 50% lethal concentration [LC50], and the total growth inhibition [TGI]) were calculated for every cancer cell line. The full reported data and corresponding graphs are compiled in Supporting Information S1. Average values of GI50, TGI, and LC50 values of all the reported selenoesters in all the subpanels are represented in Figure 4.
(§2) All the reported selenoesters (1–6) were submitted to the DTP of NCI. First, they were screened at a single dose (10^−5 M) against a panel of 60 cancer cell lines derived from different tumor types following the methodology available (https://dtp.cancer.gov/discovery_development/nci-60/methodology.htm). As all the compounds satisfied the threshold inhibition criteria established, they were further assessed at five concentrations (0.01, 0.1, 1, 10, and 100 µM) against the same cell panel to obtain their corresponding dose–response curves and three antitumor parameters (GI50, TGI, and LC50) by regression. GraphPad Prism 7.0 Software was used to represent the corresponding graphs.

[2] = test system: Melanoma subpanel; experiment: NCI-60 one-dose screen, melanoma subpanel; format: cell-based, human; conditions: 10 µM, 48 h
Procedure: (§3) To explore the potential antiproliferative properties of the newly synthesized derivatives, they were submitted to the National Cancer Institute's (NCI) Developmental Therapeutics Program (DTP) for screening at 10 μM in a panel of approximately 60 human cancer cell lines from different cancer types. The results are reported as the growth percentage (GP), which is the growth of the treated cells with each compound for 48 h compared to the untreated controls (Figure 2). […] The initial screening results are summarized in Figure 2, and the mean GP values of each subpanel are depicted in Figure 3. The full reports are compiled in the Supplementary Section.
as §2

[3] = test system: breast cancer cell line HS 578 T; experiment: NCI-60 five-dose assay, HS 578 T; format: cell-based, human; conditions: 48 h; for GI50: Homo sapiens, Hs-578T
Procedure: as §1, §2

[4] = test system: Renal subpanel; experiment: NCI-60 one-dose screen, renal subpanel; format: cell-based, human; conditions: 10 µM, 48 h
Procedure: as §3, §2

[5] = test system: NCI‐60 human cancer cell lines; experiment: NCI-60 five-dose assay, whole panel; format: cell-based; conditions: 48 h, bound for every subpanel
Procedure: as §1, §2

[6] = test system: Leukemia subpanel; experiment: NCI-60 five-dose assay, leukemia subpanel; format: cell-based; conditions: Homo sapiens, 48 h; for GI50: read-out: Mean GI50 Leukemia; for CC50: read-out: Mean LC50 Leukemia
Procedure: as §1, §2

[7] = test system: Breast subpanel; experiment: NCI-60 five-dose assay, breast subpanel; format: cell-based; conditions: Homo sapiens, 48 h; for GI50: read-out: Mean GI50 Breast; for LC50: read-out: Mean LC50 Breast
Procedure: as §1, §2

[8] = test system: MALME‐3M; experiment: NCI-60 five-dose assay, MALME-3M; format: cell-based; conditions: Homo sapiens, 48 h
Procedure: as §1, §2

[9] = test system: HOP‐62; experiment: NCI-60 five-dose assay, HOP-62; format: cell-based; conditions: Homo sapiens, 48 h
Procedure: as §1, §2

[10] = test system: HT29 colon cancer cell line; experiment: NCI-60 one-dose screen, HT29; format: cell-based, human; conditions: 10 µM, 48 h
Procedure: as §3, §2

[11] = test system: THP‐1 cells; experiment: THP-1 cytotoxicity (MTT, PMA-differentiated macrophages); format: cell-based, human; conditions: 48 h, mean ± SD
Procedure: The synthesized compounds were tested for their antileishmanial activity against promastigotes of L. major and L. infantum at four concentrations (1, 10, 50, and 100 µM) for 48 h using the 3‐(4,5‐dimethylthiazol‐2‐yl)‐2,5‐diphenyltetrazolium bromide (MTT) assay. In this evaluation, the activity was expressed in IC50 (concentration inhibiting the parasite growth by 50%). […] The CC50 was defined as the concentration of selenoesters that led to a reduction in the viability of the macrophages, such that only 50% of the cells survived when compared to the control group. This cell line, derived from the blood of a human with acute monocytic leukemia, was chosen as it has been widely reported that it resembles tissue macrophages to various extents as well as supports the infection by numerous Leishmania promastigotes. The selectivity indexes (SIs) were calculated as the ratio between toxicity on macrophages (THP‐1 cells)/antileishmanial activity. The data for standard control drugs (miltefosine and paromomycin) are included for comparison purposes.
THP‐1 cells were seeded at a concentration of 8 × 10^4 cells per well in 96‐well plates and incubated with phorbol 12‐myristate 13‐acetate (PMA) (50 ng/mL) for 72 h (37°C and 5% CO2) to differentiate them into macrophages. After that, the culture medium was removed and the cells were treated with the reported selenoesters at different increasing concentrations ranging from 1 to 200 µM for 48 h at 37°C and 5% of CO2. Macrophages treated with DMSO (1%) were used as controls, and the compounds were dissolved in DMSO at a stock concentration of 10^−2 M. Afterward, the MTT assay was performed. Data were obtained from three independent experiments performed in triplicate. The absorbance was measured at 550 nm using a MultiskanEX photometric plate reader for microplates. The CC50 values were calculated using OriginPro 8.5.1. software by nonlinear curve fitting. SIs were calculated as the ratio of the CC50 values determined for the macrophages and the IC50 values obtained in each Leishmania promastigote. GraphPad Prism 7.0 Software was used to obtain the corresponding graphs.

[12] = test system: OVCAR‐5 ovarian cancer cells; experiment: NCI-60 five-dose assay, OVCAR-5; format: cell-based, human; conditions: 48 h
Procedure: as §1, §2

[13] = test system: HL‐60(TB) cells; experiment: NCI-60 one-dose screen, HL-60(TB); format: cell-based, human; conditions: 10 µM, 48 h
Procedure: as §3, §2

Compound	GI50 [1] [µM]	average growth cell value, Melanoma [2] [%]	GI50 [3] [µM]	average growth cell value, Renal [4] [%]	mean TGI values against all the subpanels tested [5]	GI50 [6] [µM]	CC50 [6] [µM]	GI50 [7] [µM]	LC50 [7] [µM]	TGI HS 578 T [3] [µM]	GI50 [8] [µM]	GI50 [9] [µM]	behaviour in HT29 [10]	CC50 [11] [µM]	cytotoxicity against OVCAR‐5 [12]	GI50 ([5]; Homo sapiens, read-out: mean GI50 values in all the cancer subpanels tested) [µM]	behaviour in HL‐60(TB) [13]
N#Cc1ccc(NC(=O)C[Se]C(=O)c2ccccc2)cc1C(F)(F)F [Compound 1, Se‐(2‐((4‐cyano‐3‐(trifluoromethyl)phenyl)amino)‐2‐oxoethyl)benzoselenoate]	0.89	-94.28	0.64	-95.41	below 5 µM	1.01	4.36	1.61	8.02	–	–	–	–	–	–	–	–
O=C(C[Se]C(=O)c1ccccc1)Nc1ccc([N+](=O)[O-])c(C(F)(F)F)c1 [Compound 2, Se‐(2‐((4‐nitro‐3‐(trifluoromethyl)phenyl)amino)‐2‐oxoethyl)benzoselenoate]	0.8	-94.64	0.28	-96.22	below 5 µM	0.9	4.34	1.48	7.68	0.89	0.83	0.86	–	–	–	–	–
O=C(C[Se]C(=O)c1ccccc1)Nc1cccc(OC(F)(F)F)c1 [Compound 3, Se‐(2‐oxo‐2‐((3‐(trifluoromethoxy)phenyl)amino)ethyl)benzoselenoate]	–	-50.62	–	-61.17	–	3.06	19.6	2.62	22.6	–	–	–	potent cytotoxic activity	> 200	–	–	–
O=C(C[Se]C(=O)c1ccco1)Nc1ccc([N+](=O)[O-])c(C(F)(F)F)c1 [Compound 5, Se‐(2‐((4‐nitro‐3‐(trifluoromethyl)phenyl)amino)‐2‐oxoethyl)furan‐2‐carboselenoate]	–	-56.28	–	-39.51	–	2.51	> 100	2.01	–	–	–	–	–	–	remarkable cytotoxicity	–	–
O=C(C[Se]C(=O)c1ccco1)Nc1cccc(OC(F)(F)F)c1 [Compound 6, Se‐(2‐oxo‐2‐((3‐(trifluoromethoxy)phenyl)amino)ethyl)furan‐2‐carboselenoate]	–	-18.35	–	-17.86	–	6.45	> 100	3.08	–	–	–	–	–	–	–	< 10	cytotoxic behavior
